The supplement of paper PMC10307832

Legend:
Assay in all cases: relative viability (nuclei count vs DMSO), 5 days (fraction); higher = more cells survive
[1] = compound: C1/C(=C\C2=CC=CS2)/C(=O)/C(=C/C3=CC=CS3)/C1 + Nc1nc2[nH]cc(CCc3ccc(C(=O)N[C@@H](CCC(=O)O)C(=O)O)cc3)c2c(=O)[nH]1 [Pemetrexed] (partner 0.2 µM)
Method in brief: (§1)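 Medians of duplicate plates are given as relative viability. That measure is the nuclei count in treated wells divided by the count in vehicle wells. Counts were taken on 4× images of lung cancer cell lines in 1536-well plates, 5 days after pin-tool dosing the day after seeding with one drug alone or a fixed anchor-drug dose plus five library-drug doses (not always all listed) in √10 steps.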

Lestaurtinib + Alpelisib = compound: C[C@]12O[C@H](C[C@]1(O)CO)n1c3ccccc3c3c4c(c5c6ccccc6n2c5c31)CNC4=O [Lestaurtinib] + Cc1nc(NC(=O)N2CCC[C@H]2C(N)=O)sc1-c1ccnc(C(C)(C)C(F)(F)F)c1 [Alpelisib] (partner 2 µM)
Method in brief: as §1

TPCA-1 + Pictilisib = compound: C1=CC(=CC=C1C2=CC(=C(S2)NC(=O)N)C(=O)N)F [TPCA-1] + CS(=O)(=O)N1CCN(Cc2cc3nc(-c4cccc5[nH]ncc45)nc(N4CCOCC4)c3s2)CC1 [Pictilisib] (partner 1 µM)
Method in brief: as §1

TPCA-1 + Foretinib = compound: C1=CC(=CC=C1C2=CC(=C(S2)NC(=O)N)C(=O)N)F [TPCA-1] + COc1cc2c(Oc3ccc(NC(=O)C4(C(=O)Nc5ccc(F)cc5)CC4)cc3F)ccnc2cc1OCCCN1CCOCC1 [Foretinib] (partner 0.25 µM)
Method in brief: as §1

Cell Line | relative viability ([1]; first compound 0.2 µM) | relative viability ([1]; first compound 0.6325 µM) | relative viability ([1]; first compound 2 µM) | relative viability ([1]; first compound 6.325 µM) | relative viability ([1]; first compound 20 µM) | relative viability (Lestaurtinib + Alpelisib; first compound 0.005 µM) | relative viability (Lestaurtinib + Alpelisib; first compound 0.01581 µM) | relative viability (Lestaurtinib + Alpelisib; first compound 0.05 µM) | relative viability (Lestaurtinib + Alpelisib; first compound 0.1581 µM) | relative viability (Lestaurtinib + Alpelisib; first compound 0.5 µM) | relative viability (TPCA-1 + Pictilisib; first compound 0.04 µM) | relative viability (TPCA-1 + Pictilisib; first compound 0.1265 µM) | relative viability (TPCA-1 + Pictilisib; first compound 0.4 µM) | relative viability (TPCA-1 + Pictilisib; first compound 1.265 µM) | relative viability (TPCA-1 + Pictilisib; first compound 4 µM) | relative viability (TPCA-1 + Foretinib; first compound 0.04 µM) | relative viability (TPCA-1 + Foretinib; first compound 0.1265 µM) | relative viability (TPCA-1 + Foretinib; first compound 0.4 µM) | relative viability (TPCA-1 + Foretinib; first compound 1.265 µM) | relative viability (TPCA-1 + Foretinib; first compound 4 µM)
NCI-H2087 | 0.635 | 0.7 | 0.621 | 0.529 | 0.639 | 1.15 | 1.08 | 0.83 | 0.783 | 0.325 | 1.23 | 0.785 | 0.823 | 0.626 | 0.203 | 1.52 | 0.99 | 1.09 | 0.894 | 0.432
NCI-H2126 | 0.677 | 0.681 | 0.789 | 0.58 | 0.714 | 0.785 | 0.746 | 0.608 | 0.681 | 0.478 | 0.507 | 0.435 | 0.506 | 0.505 | 0.309 | 1.25 | 0.721 | 1.16 | 1.06 | 1
NCI-H2170 | 0.283 | 0.246 | 0.259 | 0.245 | 0.256 | 0.698 | 0.707 | 0.592 | 0.699 | 0.404 | 0.373 | 0.27 | 0.32 | 0.32 | 0.209 | 1.08 | 0.985 | 0.998 | 0.986 | 0.682
NCI-H2228 | 0.369 | 0.333 | 0.4 | 0.33 | 0.326 | 0.806 | 0.648 | 0.582 | 0.32 | 0.205 | 0.379 | 0.358 | 0.402 | 0.454 | 0.186 | 0.899 | 0.677 | 0.842 | 0.717 | 0.722
NCI-H2347 | 0.44 | 0.429 | 0.478 | 0.448 | 0.426 | 1.1 | 1.22 | 0.91 | 0.573 | 0.606 | 0.588 | 0.568 | 0.901 | 0.806 | 0.31 | 1.03 | – | 1.16 | 0.551 | 0.782
NCI-H2405 | 1.08 | 0.96 | 1.2 | 1.01 | 1.04 | 0.842 | 0.643 | 0.488 | 0.367 | 0.258 | 0.487 | 0.353 | 0.493 | – | 0.364 | 1.03 | 1.05 | 1.11 | 0.991 | 1.03
NCI-H3122 | 0.195 | 0.213 | 0.206 | 0.191 | 0.206 | 0.92 | 0.983 | 0.932 | 0.841 | 0.48 | 0.725 | 0.511 | 0.603 | 0.612 | 0.595 | 1.06 | 0.914 | 1.02 | 0.928 | 0.909
PC-3 [JPC-3] | – | 1.15 | 0.982 | 1.04 | 1.26 | 1.03 | 1.1 | 0.985 | 0.913 | 0.65 | 0.8 | 0.714 | 0.81 | 0.746 | 0.612 | 1.03 | 1.08 | 0.968 | 0.984 | 1.02
PC-14 | 0.145 | 0.166 | 0.136 | 0.131 | 0.142 | 0.973 | 1.01 | 0.465 | 0.602 | 0.471 | 0.847 | 0.605 | 0.526 | 0.499 | 0.322 | 1.01 | 0.916 | 0.957 | 1.01 | 0.79
RERF-LC-KJ | 0.474 | 0.49 | 0.473 | 0.449 | 0.511 | 0.888 | 0.689 | 0.591 | 0.535 | 0.445 | 0.533 | 0.493 | 0.561 | 0.44 | 0.466 | 0.904 | 0.997 | 0.883 | 0.836 | 0.774
SK-LU-1 | 1.12 | 1.03 | 0.942 | 0.829 | 1.02 | 0.652 | 0.613 | 0.436 | 0.536 | 0.258 | 0.797 | 0.465 | 0.44 | 0.436 | 0.317 | 0.806 | 0.736 | 0.876 | 0.617 | 0.377
SK-MES-1 | 0.972 | 0.959 | 0.949 | 0.752 | 0.988 | 0.862 | 0.337 | 0.332 | 0.302 | 0.229 | 0.403 | 0.316 | 0.305 | 0.255 | 0.276 | 0.997 | 0.847 | 0.813 | 0.599 | 0.609
SW 1573 | 0.774 | 0.845 | 0.869 | 0.546 | 0.856 | 0.822 | 0.841 | 0.401 | 0.568 | 0.379 | 0.54 | 0.419 | 0.506 | 0.505 | 0.495 | 0.6 | 0.811 | 1.03 | 0.964 | 0.866
